{"source": "patent US6632794B1", "about": "“Insulin-like growth factor agonist molecules” (Genentech, Inc., priority 1997, dated 2003)", "key": {"L7 murine fibroblasts": {"test_system": "L7 murine fibroblasts", "details": "Bayne et al.; cited from earlier work"}, "[1]": {"target": "T1, Type 1 IGF receptor (derived from placental membranes) (Homo sapiens, UniProt P08069)", "T1 construct": "Type 1 IGF receptor (derived from placental membranes); host or cells: placental membranes", "T1 sequence (P08069 31-736 limits assumed)": "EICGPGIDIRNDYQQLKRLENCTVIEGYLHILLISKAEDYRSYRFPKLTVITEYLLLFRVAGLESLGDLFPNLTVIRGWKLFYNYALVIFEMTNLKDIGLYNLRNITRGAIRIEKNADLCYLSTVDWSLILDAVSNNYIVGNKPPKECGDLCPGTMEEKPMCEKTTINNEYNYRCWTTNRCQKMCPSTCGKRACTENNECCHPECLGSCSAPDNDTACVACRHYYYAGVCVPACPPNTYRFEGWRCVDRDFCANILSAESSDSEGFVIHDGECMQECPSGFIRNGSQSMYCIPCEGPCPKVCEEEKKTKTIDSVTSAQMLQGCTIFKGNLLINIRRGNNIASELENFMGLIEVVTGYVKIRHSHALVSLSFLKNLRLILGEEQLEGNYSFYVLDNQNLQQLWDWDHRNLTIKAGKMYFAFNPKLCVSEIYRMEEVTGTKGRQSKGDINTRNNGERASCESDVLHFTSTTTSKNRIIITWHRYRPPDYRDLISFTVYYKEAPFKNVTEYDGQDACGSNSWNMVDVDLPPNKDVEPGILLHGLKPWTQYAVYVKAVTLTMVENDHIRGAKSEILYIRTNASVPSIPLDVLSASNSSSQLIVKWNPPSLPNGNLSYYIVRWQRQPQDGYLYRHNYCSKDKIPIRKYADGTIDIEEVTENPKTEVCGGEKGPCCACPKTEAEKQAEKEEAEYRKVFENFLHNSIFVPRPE", "T1 sequence (P08069 741-1367 partner limits assumed)": "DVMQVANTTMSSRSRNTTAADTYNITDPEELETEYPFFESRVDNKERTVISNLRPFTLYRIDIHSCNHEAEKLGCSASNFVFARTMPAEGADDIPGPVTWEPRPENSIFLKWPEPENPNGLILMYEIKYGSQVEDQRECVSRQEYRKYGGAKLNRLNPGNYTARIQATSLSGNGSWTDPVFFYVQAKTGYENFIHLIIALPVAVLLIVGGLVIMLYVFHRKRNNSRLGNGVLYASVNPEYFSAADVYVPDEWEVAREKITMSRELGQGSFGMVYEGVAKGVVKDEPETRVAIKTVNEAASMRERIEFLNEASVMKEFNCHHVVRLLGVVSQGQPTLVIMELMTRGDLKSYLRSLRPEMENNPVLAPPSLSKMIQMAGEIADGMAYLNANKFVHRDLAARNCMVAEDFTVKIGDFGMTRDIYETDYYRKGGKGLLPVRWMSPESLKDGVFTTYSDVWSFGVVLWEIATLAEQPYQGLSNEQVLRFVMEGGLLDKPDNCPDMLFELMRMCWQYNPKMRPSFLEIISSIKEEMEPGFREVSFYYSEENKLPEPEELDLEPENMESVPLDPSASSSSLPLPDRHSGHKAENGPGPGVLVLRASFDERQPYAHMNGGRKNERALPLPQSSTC", "details": "Type 1 IGF receptor from placental membranes; Bayne et al.; read-out: half maximal inhibition of ligand binding; cited from earlier work"}, "[2]": {"target": "T2, human Type 1 IGF receptor (Homo sapiens, UniProt P08069)", "T2 construct": "host or cells: MCF-7", "T2 sequence (P08069 31-736 limits assumed)": "as the sequence (P08069 31-736 limits assumed) above", "T2 sequence (P08069 741-1367 partner limits assumed)": "as the sequence (P08069 741-1367 partner limits assumed) above", "test": "KIRA for phosphorylation of the human Type 1 receptor in MCF-7 cells", "assay_type": "cell-based", "details": "substance alone"}, "hypophysectomized rats": {"test_system": "hypophysectomized rats", "test": "Long-term administration to hypophysectomized rats", "assay_type": "in vivo, rat", "details": "one week", "excerpt": "Young female SD rats were hypophysectomized at Taconic Laboratories and delivered several days later. The rats were then weighed frequently and those whose weight increased or decreased by more than 7 grams between 2 and 3 weeks following hypophysectomy were excluded from the study. Twenty-five rats were grouped randomly into five groups based on their body weight, and then randomly assigned to cages, with four rats per cage. The animals were allowed ad libitum access to food and water and housed in a room controlled for temperature and lighting.\n1) Excipient pump, excipient injections;\n2) (Leu^24,Ala^31)hIGF-I (10 μg/day, by SC minipump), excipient injections;\n3) (Leu^24,Ala^31)hIGF-I (50 μg/day, by SC minipump), excipient injections;\n4) Recombinant human GH (NUTROPIN™ brand from Genentech, Inc., 20 μg/day, by SC injection, two injections each of 10 μg/day), excipient minipump; or\n5) (Leu^24,Ala^31)hIGF-I (50 μg/day, by SC minipump) plus recombinant human GH (20 μg/day, by SC injection, two injections each of 10 μg/day).\nThe rats were dosed for one week.\nThe mutant (Leu^24,Ala^31)hIGF-I was administered by osmotic minipumps (ALZET 2001™, Alza, Palo Alto, Calif.), which were placed in a subcutaneous tunnel in the dorsal neck region of the rats while they were anesthetized with KETAMINE™/XYLAZINE™ anesthesia. The pumps were filled with solutions so that the calculated daily dose was 50 μg or 10 μg, assuming that 24 μl of solution was delivered each day for one week.\nRecombinant human GH was administered for one week by twice daily SC injections of 10 μg in 100 μl volume.\nBody weights were measured daily in the morning. At the end of the week of dosing the animals were anesthetized via CO2 and exsanguinated via cardiac puncture. The remaining blood was allowed to clot and serum was separated and stored for further analysis.\nSpleen, thymus, heart, liver, kidney, and perirenal fat were removed and weighed. The tibia was removed and fixed in neutral buffered formalin for histological measurement of epiphyseal plate width.\nSerum chemistries were measured on an automated Chem I analyzer. Serum insulin concentration was measured using an RIA Kit supplied by Linco, Inc. To measure the IGF-I concentrations the serum was extracted using acid ethanol and the supernatant diluted to neutrality and assayed for IGF-I by RIA.\nTibia were sectioned longitudinally, stained with Toluene Blue, and mounted on microscope slides. The tibial epiphyseal plate width was measured using an ocular micrometer attached to a microscope.\nData were analyzed statistically by analysis of variance using one factor and two factor ANOVA."}}, "data": [{"substance": "(Leu^24,Ala^31)hIGF-I", "values": [{"measurement": "reduction in activity, ^3H thymidine incorporation", "setting": "L7 murine fibroblasts", "value": "more than 200 fold"}, {"measurement": "IC50", "setting": "[1]", "value": 2000, "unit": "nM"}, {"measurement": "phosphorylation of the IGF-I receptor (KIRA)", "setting": "[2]", "value": "did not cause any change in receptor phosphorylation"}, {"measurement": "blood levels of endogenous rat IGF-I", "setting": "hypophysectomized rats", "value": "lower"}, {"measurement": "total IGF-I (rat and human) in blood", "setting": "hypophysectomized rats; IGF agonist 10 μg", "value": "not a rise in total IGF"}, {"measurement": "body weight gain", "setting": "hypophysectomized rats; IGF agonist 10 μg/day SC minipump", "value": "mean weight gain that was numerically smaller than that of the control group"}, {"measurement": "total IGF-I (rat and human) in blood", "setting": "hypophysectomized rats; IGF agonist 50 μg alone or with GH", "value": "rise in total IGF-I"}, {"measurement": "body weight gain", "setting": "hypophysectomized rats; IGF agonist 50 μg/day SC minipump, hGH 20 μg/day SC, or both", "value": "only a small amount of activity"}, {"measurement": "absolute thymus weight", "setting": "hypophysectomized rats; IGF agonist 50 μg/day, hGH 20 μg/day, or both", "value": "increased"}, {"measurement": "absolute and relative heart weight", "setting": "hypophysectomized rats; IGF agonist 10 and 50 μg, hGH 20 μg/day, or combination", "value": "significant increase in the absolute and the relative size of the heart"}, {"measurement": "absolute spleen weight", "setting": "hypophysectomized rats; IGF mutant 10 and 50 μg/day, hGH 20 μg/day, or hGH plus 50 μg/day", "value": "increased by both doses"}, {"measurement": "bone growth (tibial epiphyseal plate width)", "setting": "hypophysectomized rats; low-dose mutant (10 μg/day)", "value": "did not increase bone growth"}, {"measurement": "bone growth (tibial epiphyseal plate width)", "setting": "hypophysectomized rats; mutant 50 μg/day alone or with rhGH", "value": "significant increase in bone growth"}]}]}
